Results: patent US8741886B2, “Baclofen and acamprosate based therapy of neurological disorders” (Pharnext, priority 2011, dated 2014)

How the values were obtained:
[1] = test system: mice injected i.c.v. with Aβ25-35 peptide; test: Spontaneous alternation, Y-maze test, after i.c.v. Aβ25-35; type: in vivo; conditions: Acamprosate 32 μg/kg/day, Baclofen 480 μg/kg/day
Source text: The Y-maze is made of grey polyvinylchloride. Each arm is 40 cm long, 13 cm high, 3 cm wide at the bottom, 10 cm wide at the top, and converging at an equal angle. […] An alternation is defined as entries into all three arms on consecutive occasions.

[2] = test system: rat primary cortical cells; test: Toxicity of human Aβ1-42 peptide on primary cortical neuron cells: LDH release; type: cell-based; conditions: for protection of neurons from amyloid injury: 1 h pre-treatment, Estradiol 150 nM or BDNF 50 ng/mL
Description: Rat cortical neurons were cultured as described by Singer et al. (47). Briefly pregnant female rats of 15 days gestation were killed by cervical dislocation (Rats Wistar) and the foetuses were removed from the uterus. The cortex was removed and placed in ice-cold medium of Leibovitz (L15) containing 2% of Penicillin 10.000 U/ml and Streptomycin 10 mg/ml and 1% of bovine serum albumin (BSA). Cortexes were dissociated by trypsin for 20 min at 37° C. (0.05%). The reaction was stopped by the addition of Dulbecco's modified Eagle's medium (DMEM) containing DNasel grade II and 10% of foetal calf serum (FCS). Cells were then mechanically dissociated by 3 serial passages through a 10 ml pipette and centrifuged at 515×g for 10 min at +4° C. The supernatant was discarded and the pellet of cells was re-suspended in a defined culture medium consisting of Neurobasal supplemented with B27 (2%), L-glutamine (0.2 mM), 2% of PS solution and 10 ng/ml of BDNF. Viable cells were counted in a Neubauer cytometer using the trypan blue exclusion test. The cells were seeded at a density of 30 000 cells/well in 96 well-plates (wells were pre-coated with poly-L-lysine (10 μg/ml)) and were cultured at +37° C. in a humidified air (95%)/CO2 (5%) atmosphere.
Briefly, Aβ1-42 peptide was reconstituted in define culture medium at 40 μM (mother solution) and was slowly shaken at +37° C. for 3 days in dark. The control medium was prepared in the same conditions.
After 10 days of neuron culture, test compounds were solved in culture medium (+0.1% DMSO) and then pre-incubated with neurons for 1 hour before the Aβ1-42 application (in a final volume per culture well of 100 μl). One hour after test compound(s) incubation, 100 μl of Aβ1-42 peptide was added to a final concentration of 10 μM diluted in presence of drug(s), in order to avoid further test compound(s) dilutions. Cortical neurons were intoxicated for 24 hours. Three separate cultures were performed per condition, 6 wells per condition.
BDNF (50 ng/ml) and Estradiol-β (150 nM) were used as positive control and reference compounds respectively. Three separate cultures will be performed per condition, 12 wells per condition.
Estradiol-β at 150 nM was used as a positive control (FIG. 4).
Estradiol-β was solved in culture medium and pre-incubated for 1 h before the amyloid-β1-42 application.
The following conditions were assessed: • CONTROL PLAQUE: 12 wells/condition • Negative Control: medium alone+0.1% DMSO • Intoxication: amyloid-β1-42 (10 μM) for 24 h • Reference compound: Estradiol (150 nM) 1 hr. • DRUG PLATE: 6 wells/condition • Negative Control: medium alone+0.1% DMSO • Intoxication: amyloid-β1-42 (10 μM) for 24 h • Test compound(s): test compound(s)—1 hr followed by amyloid-β1-42 (10 μM) for 24 h Lactate Dehydrogenase (LDH) Activity Assay
24 hours after intoxication, the supernatant was taken off and analyzed with Cytotoxicity Detection Kit (LDH, Roche Applied Science, ref: 11644793001, batch: 11800300). This colorimetric assay for the quantification of cell toxicity is based on the measurement of lactate dehydrogenase (LDH) activity released from the cytosol of dying cells into the supernatant.
Data were expressed in percentage of control conditions (no intoxication, no amyloid=100%) in order to express the amyloid injury. All values were expressed as mean+/−SEM (s.e.mean) of the 3 cultures (n=6 wells per condition). Statistic analyses were done on the different conditions (ONE-WAY ANOVA followed by the Dunnett's test when it was allowed, Statview software version 5.0).

COc1cc2c(cc1OC)C(=O)C(CC1CCN(Cc3ccccc3)CC1)C2 (centres unmarked) [Donepezil]
protection of percentage of alternation (Y-maze), low doses with Donepezil ([1]; Donepezil 0.25 mg/kg/day): 32%
effect on percentage of alternation (Y-maze), low doses (in words) ([1]; drugs alone: Donepezil 0.25 mg/kg/day): no significant effect

C[C@]12CC[C@@H]3c4ccc(O)cc4CC[C@H]3[C@@H]1CC[C@@H]2O [Estradiol]
protection of neurons from amyloid injury [2]: −94%

NCCCS(=O)(=O)O [Homotaurine]
prevention of Aβ1-42 intoxication by pre-treatment ([2]; 8 nM): 99%

B1: BDNF: BDNF (50 ng/ml) used as positive control for neuroprotection (protein, UniProt P23560 19-247, looked up)
Neurotrophic factor BDNF …: APMKEANIRGQGGLAYPGVRTHGTLESVNGPKAGSRGLTSLADTFEHVIEELLDEDQKVRPNEENNKDADLYTSRVMLSSQVPLEPPLLFLLEEYKNYLDAANMSMRVRRHSDPARRGELSVCDSISEWVTAADKKTAVDMSGGTVTVLEKVPVSKGQLKQYFYETKCNPMGYTKEGCRGIDKRHWNSQCRTTQSYVRALTMDSKKRIGWRFIRIDTSCVCTLTIKRGR
protection of neurons from amyloid injury [2]: −94%
